Measured values published in the supplement of paper PMC7796163.
± gives the uncertainty stated by the source.

Experiments:
Experiment in all cases: CYP enzyme activity (probe substrate metabolite formation) fold change vs solvent control; higher = stronger induction of CYP activity
Details in all cases: HepaRG
CYP2D6 = CYP2D6 (UniProt P10635)
Experimental: (§1)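 Differentiated HepaRG cells were treated with 1, 5 or 10 µM of each PAH (0.5% DMSO) for 12, 24 or 48 h, then incubated for 3 h at 37 °C with a cocktail of isoform-specific CYP substrates (phenacetin for CYP1A2, bupropion for CYP2B6, amodiaquine for CYP2C8, tolbutamide for CYP2C9, mephenytoin for CYP2C19, propafenone for CYP2D6, atorvastatin for CYP3A4). Metabolite formation was quantified by LC-MS as a measure of CYP activity and reported as fold change over solvent control (mean ± SD, n=3). Values below the LLOQ were set to half the LLOQ.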

CYP2C19 = CYP2C19 (UniProt P33261)
CYP2C19, sequence (P33261 whole entry): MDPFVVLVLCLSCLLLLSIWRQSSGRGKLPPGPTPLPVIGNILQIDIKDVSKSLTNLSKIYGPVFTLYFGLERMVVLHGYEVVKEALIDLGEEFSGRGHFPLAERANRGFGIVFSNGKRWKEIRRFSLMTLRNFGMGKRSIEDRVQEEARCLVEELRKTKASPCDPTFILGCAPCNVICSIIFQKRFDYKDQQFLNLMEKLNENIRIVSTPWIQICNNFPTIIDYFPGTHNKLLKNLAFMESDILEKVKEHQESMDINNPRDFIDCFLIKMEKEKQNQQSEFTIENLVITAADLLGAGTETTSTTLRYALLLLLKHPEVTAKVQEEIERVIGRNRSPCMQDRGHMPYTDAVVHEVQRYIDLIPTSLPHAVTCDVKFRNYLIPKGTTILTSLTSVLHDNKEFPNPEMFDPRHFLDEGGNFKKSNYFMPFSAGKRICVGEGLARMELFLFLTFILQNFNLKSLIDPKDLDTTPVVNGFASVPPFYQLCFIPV
Experimental: as §1

CYP1A2 = biological target: T1, CYP1A2 (UniProt P05177)
T1 sequence (whole entry): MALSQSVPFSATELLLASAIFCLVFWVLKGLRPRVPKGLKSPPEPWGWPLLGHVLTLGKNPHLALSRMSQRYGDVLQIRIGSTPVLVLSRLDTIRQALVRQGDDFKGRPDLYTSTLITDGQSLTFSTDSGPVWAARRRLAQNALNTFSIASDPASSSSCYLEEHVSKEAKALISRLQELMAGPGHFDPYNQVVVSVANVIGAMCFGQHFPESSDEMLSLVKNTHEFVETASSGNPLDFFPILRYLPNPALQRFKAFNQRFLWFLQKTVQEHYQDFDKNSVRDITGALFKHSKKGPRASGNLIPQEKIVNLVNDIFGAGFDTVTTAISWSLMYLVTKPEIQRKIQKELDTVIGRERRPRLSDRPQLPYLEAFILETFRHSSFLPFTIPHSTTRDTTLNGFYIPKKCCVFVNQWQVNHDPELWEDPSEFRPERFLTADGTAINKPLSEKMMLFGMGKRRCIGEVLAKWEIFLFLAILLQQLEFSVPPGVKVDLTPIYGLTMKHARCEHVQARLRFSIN
Experimental: as §1

CYP3A4 = CYP3A4 (UniProt P08684)
CYP3A4, sequence (P08684 whole entry): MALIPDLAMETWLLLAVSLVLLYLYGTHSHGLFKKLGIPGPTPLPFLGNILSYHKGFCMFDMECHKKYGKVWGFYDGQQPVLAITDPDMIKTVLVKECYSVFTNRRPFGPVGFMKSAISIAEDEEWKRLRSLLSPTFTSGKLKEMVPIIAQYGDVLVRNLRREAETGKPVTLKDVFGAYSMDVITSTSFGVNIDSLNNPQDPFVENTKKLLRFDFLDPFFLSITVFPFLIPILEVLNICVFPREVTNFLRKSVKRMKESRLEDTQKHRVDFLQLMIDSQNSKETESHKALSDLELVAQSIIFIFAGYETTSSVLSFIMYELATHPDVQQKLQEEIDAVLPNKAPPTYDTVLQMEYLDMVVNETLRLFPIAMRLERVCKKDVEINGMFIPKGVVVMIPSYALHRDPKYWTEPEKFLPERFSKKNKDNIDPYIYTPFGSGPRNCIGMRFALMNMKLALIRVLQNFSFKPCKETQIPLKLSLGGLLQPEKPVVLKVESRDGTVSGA
Experimental: as §1

CYP2C8 = biological target: T2, CYP2C8 (UniProt P10632)
T2 sequence (whole entry): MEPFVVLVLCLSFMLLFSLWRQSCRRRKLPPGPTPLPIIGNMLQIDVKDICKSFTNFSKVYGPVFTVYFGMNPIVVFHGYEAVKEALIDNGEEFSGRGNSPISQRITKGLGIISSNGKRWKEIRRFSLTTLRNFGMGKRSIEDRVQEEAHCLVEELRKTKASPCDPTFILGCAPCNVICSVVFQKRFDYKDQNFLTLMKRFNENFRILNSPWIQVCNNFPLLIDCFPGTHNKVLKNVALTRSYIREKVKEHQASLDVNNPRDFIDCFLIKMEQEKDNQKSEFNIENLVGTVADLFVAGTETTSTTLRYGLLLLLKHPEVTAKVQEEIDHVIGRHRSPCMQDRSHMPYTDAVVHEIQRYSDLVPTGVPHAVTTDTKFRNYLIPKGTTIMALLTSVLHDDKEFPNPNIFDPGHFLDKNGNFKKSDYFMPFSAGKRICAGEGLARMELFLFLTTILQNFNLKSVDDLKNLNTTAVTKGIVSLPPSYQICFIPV
Experimental: as §1

CYP2B6 = biological target: T3, CYP2B6 (UniProt P20813)
T3 sequence (whole entry): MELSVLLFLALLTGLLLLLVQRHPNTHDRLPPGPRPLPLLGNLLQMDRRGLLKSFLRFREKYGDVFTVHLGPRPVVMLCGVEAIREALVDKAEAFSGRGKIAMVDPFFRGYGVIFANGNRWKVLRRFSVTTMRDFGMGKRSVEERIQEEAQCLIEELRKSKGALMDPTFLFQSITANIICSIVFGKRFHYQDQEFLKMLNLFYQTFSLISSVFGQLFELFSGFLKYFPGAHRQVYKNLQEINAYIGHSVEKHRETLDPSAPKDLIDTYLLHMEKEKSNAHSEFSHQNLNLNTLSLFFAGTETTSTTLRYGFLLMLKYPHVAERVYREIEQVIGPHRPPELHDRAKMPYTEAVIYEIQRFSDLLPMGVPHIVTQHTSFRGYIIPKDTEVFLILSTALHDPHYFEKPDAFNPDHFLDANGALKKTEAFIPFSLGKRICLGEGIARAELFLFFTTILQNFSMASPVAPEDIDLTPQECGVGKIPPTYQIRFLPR
Experimental: as §1

CYP2C9 = CYP2C9 (UniProt P11712)
CYP2C9, sequence (P11712 whole entry): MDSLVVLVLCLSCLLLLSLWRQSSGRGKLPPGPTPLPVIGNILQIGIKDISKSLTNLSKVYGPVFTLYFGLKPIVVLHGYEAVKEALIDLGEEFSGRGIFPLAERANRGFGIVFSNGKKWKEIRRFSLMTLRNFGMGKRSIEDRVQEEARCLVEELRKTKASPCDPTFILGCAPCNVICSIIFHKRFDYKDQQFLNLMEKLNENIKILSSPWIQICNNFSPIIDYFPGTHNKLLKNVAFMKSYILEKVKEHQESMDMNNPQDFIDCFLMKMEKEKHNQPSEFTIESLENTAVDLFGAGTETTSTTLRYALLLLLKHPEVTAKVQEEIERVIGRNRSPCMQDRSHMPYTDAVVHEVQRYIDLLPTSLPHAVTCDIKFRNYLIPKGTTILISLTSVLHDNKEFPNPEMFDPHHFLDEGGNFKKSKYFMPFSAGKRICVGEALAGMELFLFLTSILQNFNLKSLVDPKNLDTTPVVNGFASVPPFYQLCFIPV
Experimental: as §1

CYP2D6, sequence (P10635 whole entry, canonical isoform): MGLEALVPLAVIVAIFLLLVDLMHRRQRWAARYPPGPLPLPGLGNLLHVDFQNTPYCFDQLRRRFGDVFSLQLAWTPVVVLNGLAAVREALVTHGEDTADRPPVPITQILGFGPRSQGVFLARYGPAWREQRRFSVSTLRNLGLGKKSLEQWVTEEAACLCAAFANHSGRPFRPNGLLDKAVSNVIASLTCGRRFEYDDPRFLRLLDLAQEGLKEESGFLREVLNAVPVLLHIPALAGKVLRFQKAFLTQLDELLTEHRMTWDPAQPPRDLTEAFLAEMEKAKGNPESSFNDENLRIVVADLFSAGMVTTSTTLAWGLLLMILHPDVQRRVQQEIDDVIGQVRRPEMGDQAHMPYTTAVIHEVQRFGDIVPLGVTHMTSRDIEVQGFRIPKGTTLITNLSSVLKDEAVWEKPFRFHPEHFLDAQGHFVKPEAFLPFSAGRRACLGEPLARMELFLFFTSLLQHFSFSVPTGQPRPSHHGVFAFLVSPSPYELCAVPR

c1ccc2c(c1)cc1ccc3cccc4c5ccccc5c2c1c34 [dibenzo[a,l]pyrene]
CYP enzyme activity
Details	CYP1A2	CYP2B6	CYP2C8	CYP2C9	CYP2C19	CYP2D6	CYP3A4
1 µM, treatment time 12 h	2.04	0.84	1	0.921	0.768	1.11	0.927
1 µM, treatment time 24 h	1.35	0.906	0.987	0.918	0.823	0.798	0.778
1 µM, treatment time 48 h	0.763	0.735	0.78	0.804	0.763	0.552	0.619
5 µM, treatment time 12 h	1.61	0.611	0.644	0.753	0.741	1.28	0.768
5 µM, treatment time 24 h	2.27	1.19	0.714	0.89	0.781	0.791	0.672
5 µM, treatment time 48 h	0.603	0.584	0.326	0.472	0.53	0.288	0.385
10 µM, treatment time 12 h	0.515	0.313	0.627	0.395	0.469	1.19	0.543
10 µM, treatment time 24 h	1.39	1.22	0.639	0.732	0.689	0.789	0.471
10 µM, treatment time 48 h	0.286	0.354	0.166	0.233	0.257	0.212	0.118

c1ccc2c(c1)-c1cccc3cccc-2c13 [fluoranthene]
CYP enzyme activity
Details	CYP1A2	CYP2B6	CYP2C8	CYP2C9	CYP2C19	CYP2D6	CYP3A4
1 µM, treatment time 12 h	1.01	1.2	1.01	1.02	0.972	0.989	0.901
1 µM, treatment time 24 h	0.943	1.58	1.06	1.09	0.974	0.981	0.98
1 µM, treatment time 48 h	1.07	2.05	1.14	1.18	1.1	0.91	1.03
5 µM, treatment time 12 h	1.33	1.35	0.987	1.17	1.09	1.16	1.01
5 µM, treatment time 24 h	1.09	2.28	1.07	1.3	1.16	1.11	1.16
5 µM, treatment time 48 h	1.27	3.59	1.14	1.34	1.26	1.06	1.28
10 µM, treatment time 12 h	1.41	1.25	0.988	1.15	0.999	1.18	1
10 µM, treatment time 24 h	1.07	2.01	1.04	1.11	0.995	1.08	1.03
10 µM, treatment time 48 h	1.312	3.74	1.2	1.39	1.22	1.06	1.35

c1ccc2c(c1)ccc1ccccc12 [phenanthrene]
CYP enzyme activity
Details	CYP1A2	CYP2B6	CYP2C8	CYP2C9	CYP2C19	CYP2D6	CYP3A4
1 µM, treatment time 12 h	0.969	1.02	0.995	1.02	0.946	0.961	0.891
1 µM, treatment time 24 h	0.862	1.18	1.01	1.05	0.961	0.97	0.828
1 µM, treatment time 48 h	0.839	1.15	1.01	1.06	0.981	0.879	0.844
5 µM, treatment time 12 h	1.04	1.25	0.991	1.08	1.06	1.08	0.961
5 µM, treatment time 24 h	1.18	1.98	1.05	1.27	1.15	1.19	1.1
5 µM, treatment time 48 h	1.09	2.15	1.08	1.23	1.16	1.05	1.1
10 µM, treatment time 12 h	1.1	1.12	0.995	1.03	0.985	1.03	0.928
10 µM, treatment time 24 h	1.06	1.75	1.04	1.17	1.11	0.986	0.994
10 µM, treatment time 48 h	1.11	2.29	1.08	1.34	1.17	1.03	1.11

c1cc2ccc3cccc4ccc(c1)c2c34 [pyrene]
CYP enzyme activity
Details	CYP1A2	CYP2B6	CYP2C8	CYP2C9	CYP2C19	CYP2D6	CYP3A4
1 µM, treatment time 12 h	1.18	1.1	1.01	0.925	0.893	0.973	0.912
1 µM, treatment time 24 h	1.15	1.42	1.04	1.07	1.04	0.894	0.91
1 µM, treatment time 48 h	1.07	1.3	1.07	1.18	1.16	0.996	0.931
5 µM, treatment time 12 h	1.32	1.41	0.921	0.982	1.06	1.07	0.987
5 µM, treatment time 24 h	1.42	2.27	1.07	1.08	1.06	1.04	1.01
5 µM, treatment time 48 h	1.28	2.75	1.1	1.14	1.15	0.942	1.07
10 µM, treatment time 12 h	1.31	1.33	0.924	0.914	1.02	1.11	0.916
10 µM, treatment time 24 h	1.57	2.4	1.14	1.08	1.18	1.2	1.21
10 µM, treatment time 48 h	1.52	3.6	1.15	1.45	1.3	1.12	1.32
